# Laboratory results taken from ChEMBL document CHEMBL1201862, “PubChem BioAssay data set” (2004).
# Active and inactive are the calls of the source.
# Experiments:
# Beta-galactosidase = Beta-galactosidase (Escherichia coli, UniProt Q8VNN2); type: functional
# [1] = target: T1, Delta-type opioid receptor (Homo sapiens, UniProt P41143); experiment: HTS Image-Based Screen for Antagonists of the DOR Receptor. [Related pubchem assays (depositor defined):AID1777, AID1785, AID1786, AID2133]; type: functional
# [2] = target: T1, Delta-type opioid receptor; experiment: HTS Image-Based Screen for Agonists of the DOR Receptor. [Related pubchem assays (depositor defined):AID1777, AID1786, AID2133]; type: functional
# [3] = target: T2, Kappa-type opioid receptor (Homo sapiens, UniProt P41145); type: functional
# Mu-type opioid receptor [4] = target: T3, Mu-type opioid receptor (Homo sapiens, UniProt P35372); experiment: HTS Image-Based Screen for Agonists of the MOR Receptor. [Related pubchem assays (depositor defined):AID1777, AID1785, AID1786, AID2133]; type: functional
# [5] = target: T2, Kappa-type opioid receptor; type: functional; remark: listed apart in the source
# [6] = target: Microphthalmia-associated transcription factor (Homo sapiens, UniProt O75030); experiment: TRPM1 promoter luciferase signal decrease, dose response, MITF inhibitor project, cell-based, SK-MEL-5, cherry-picked, set 3 (AID 493073); type: functional
# Vero = experiment: cells; type: functional; conditions: Chlorocebus sabaeus
# [7] = target: T2, Kappa-type opioid receptor; experiment: KOR agonist analogs, imaging readout, SAR follow-up, image-based (AID 2359); type: functional
# Mu-type opioid receptor [8] = target: T3, Mu-type opioid receptor; experiment: MOR agonists by imaging, SAR follow-up, image-based (AID 2352); type: functional
# [9] = target: T1, Delta-type opioid receptor; experiment: DOR antagonists, SAR follow-up, image-based (AID 2357); type: functional
# Mu-type opioid receptor [10] = target: T3, Mu-type opioid receptor; experiment: MOR antagonists, SAR follow-up, image-based (AID 2420); type: functional;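 note: compounds added before stimulation of receptor with agonist DAMGO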
# [11] = target: T2, Kappa-type opioid receptor; experiment: KOR antagonists by imaging, SAR follow-up, image-based (AID 2348); type: functional
# [12] = target: T2, Kappa-type opioid receptor; experiment: SAR analysis of small molecule agonists of the kappa opioid receptor via a luminescent beta-arrestin assay. [Related pubchem assays (depositor defined):AID1777, AID1786, AID1966, AID2133, AID2136, AID2348, AID2352, AID2357, AID2359, AID2370, AID2420, AID2478, AID2491, AID2492, AID2493, AID2497, AID2498, AID2500, AID449737, AID488822, AID488842]; type: functional
# [13] = target: T1, Delta-type opioid receptor; experiment: DOR agonists, SAR follow-up, image-based (AID 2370); type: functional
# [14] = non-specific cell cytotoxicity, dose response, cytotoxicity control for PAX8 inhibitor project, plate reader, dry powder samples (AID 743021); type: functional, cell-based
# Melanocortin receptor 4 = Melanocortin receptor 4 (Homo sapiens, UniProt P32245); type: functional, cell-based;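 note: Cell-based assay with luminescence read-out, confirmatory dose-response testing for agonist activity of biased ligands at MC4R; human U2OS cells with tagged receptor and beta-arrestin; potency of agonists that increase receptor coupling to beta-arrestin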
# Paired box protein Pax-8 = Paired box protein Pax-8 (Homo sapiens, UniProt Q06710); experiment: inhibitors of PAX8-driven TPO luciferase reporter, dose response, RMG-I cells, cherry-pick (AID 687027); type: functional, cell-based;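 note: luciferase reporter driven by Pax8 target thyroperoxidase promoter measured by SteadyGlo luminescence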
# [15] = target: G-protein coupled receptor 55 (Homo sapiens, UniProt Q9Y2T6); experiment: GPR55 antagonists, SAR follow-up, counter-screen for GPR35 antagonist project, imaging, image-based (AID 2397); type: functional
# [16] = target: G-protein coupled receptor 35 (Homo sapiens, UniProt Q9HC97); experiment: SAR Analysis for the identification of Selective Antagonists of ERK1/2 Activity in GPR35-Overexpressing U2OS Cells. [Related pubchem assays: 2079, 2058 ]; type: functional, cell-based
# [17] = target: T2, Kappa-type opioid receptor; experiment: SAR analysis of small molecule agonists of the kappa opioid receptor via a luminescent beta-arrestin assay - Set 3. [Related pubchem assays (depositor defined):AID1777, AID1785, AID1786, AID1966, AID2133, AID2136, AID2284, AID2500]; type: functional
# [18] = target: T4, Tyrosine-protein phosphatase non-receptor type 22 (Homo sapiens, UniProt Q9Y2R2); type: functional
# T4 sequence (Q9Y2R2 whole entry): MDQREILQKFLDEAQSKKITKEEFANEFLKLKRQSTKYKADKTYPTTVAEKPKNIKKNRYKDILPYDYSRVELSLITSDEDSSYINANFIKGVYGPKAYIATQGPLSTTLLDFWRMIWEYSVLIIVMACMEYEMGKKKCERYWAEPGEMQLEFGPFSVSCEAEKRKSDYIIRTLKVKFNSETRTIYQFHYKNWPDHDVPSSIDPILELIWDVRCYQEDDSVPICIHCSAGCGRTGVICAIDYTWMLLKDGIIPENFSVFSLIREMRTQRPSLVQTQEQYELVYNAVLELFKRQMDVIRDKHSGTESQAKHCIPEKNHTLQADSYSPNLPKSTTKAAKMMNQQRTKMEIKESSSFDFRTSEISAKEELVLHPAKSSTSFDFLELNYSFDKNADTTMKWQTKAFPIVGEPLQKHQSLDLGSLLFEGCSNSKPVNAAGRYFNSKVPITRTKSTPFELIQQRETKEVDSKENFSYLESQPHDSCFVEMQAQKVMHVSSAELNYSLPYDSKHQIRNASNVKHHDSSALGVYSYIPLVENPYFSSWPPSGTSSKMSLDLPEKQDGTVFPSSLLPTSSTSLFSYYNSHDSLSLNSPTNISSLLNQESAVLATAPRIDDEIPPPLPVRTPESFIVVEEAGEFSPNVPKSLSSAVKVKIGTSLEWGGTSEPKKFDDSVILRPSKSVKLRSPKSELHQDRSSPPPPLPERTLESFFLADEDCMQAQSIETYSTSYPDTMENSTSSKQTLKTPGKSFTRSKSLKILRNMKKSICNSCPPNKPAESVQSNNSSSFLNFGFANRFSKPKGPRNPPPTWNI
# [19] = target: T5, Carboxy-terminal domain RNA polymerase II polypeptide A small phosphatase 1 (Homo sapiens, UniProt Q9GZU7); experiment: inhibitors of CTDSP1, concentration-response testing, biochemical assay, absorbance-based, actives from ultra-high-throughput screening (AID 540297); type: functional
# T5 sequence (Q9GZU7 whole entry): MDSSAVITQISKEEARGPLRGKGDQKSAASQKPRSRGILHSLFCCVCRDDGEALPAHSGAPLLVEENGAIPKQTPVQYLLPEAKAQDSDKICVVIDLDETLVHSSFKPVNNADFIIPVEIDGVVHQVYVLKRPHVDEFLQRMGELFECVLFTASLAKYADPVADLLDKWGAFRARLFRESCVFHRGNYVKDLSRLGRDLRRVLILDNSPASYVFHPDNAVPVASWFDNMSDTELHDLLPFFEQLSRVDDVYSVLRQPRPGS
# [20] = target: T6, Tyrosine-protein phosphatase non-receptor type 11 (Homo sapiens, UniProt Q06124); experiment: SHP2 phosphatase inhibition, dose response, selectivity assay for STEP inhibitor project, biochemical (AID 602367); type: functional; conditions: read-out: IC50_Mean
# T6 sequence (Q06124 whole entry): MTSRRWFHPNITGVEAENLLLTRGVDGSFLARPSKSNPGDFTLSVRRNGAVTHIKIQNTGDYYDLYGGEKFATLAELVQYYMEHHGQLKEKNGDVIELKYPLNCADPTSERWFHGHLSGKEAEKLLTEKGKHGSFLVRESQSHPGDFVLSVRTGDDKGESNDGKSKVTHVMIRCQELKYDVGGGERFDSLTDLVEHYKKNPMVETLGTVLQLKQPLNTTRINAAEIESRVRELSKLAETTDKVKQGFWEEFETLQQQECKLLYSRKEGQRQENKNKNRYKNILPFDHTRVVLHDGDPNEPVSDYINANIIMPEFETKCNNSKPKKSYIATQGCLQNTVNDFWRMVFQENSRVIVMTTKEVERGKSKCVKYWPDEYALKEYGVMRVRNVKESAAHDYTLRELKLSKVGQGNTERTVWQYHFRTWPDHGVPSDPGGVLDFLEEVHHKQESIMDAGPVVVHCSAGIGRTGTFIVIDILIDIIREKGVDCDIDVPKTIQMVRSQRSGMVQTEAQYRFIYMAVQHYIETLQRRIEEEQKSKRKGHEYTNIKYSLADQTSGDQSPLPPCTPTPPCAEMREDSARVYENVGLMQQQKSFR
# [21] = target: T4, Tyrosine-protein phosphatase non-receptor type 22; experiment: LYP phosphatase inhibition for selectivity, dose response, selectivity assay for LMPTP inhibitor project, biochemical, fluorescence, LYP catalytic domain (AID 652006); type: functional; conditions: read-out: IC50_Mean
# [22] = target: T7, Tyrosine-protein phosphatase non-receptor type 7 (Homo sapiens, UniProt P35236); type: functional
# T7 sequence (P35236 whole entry): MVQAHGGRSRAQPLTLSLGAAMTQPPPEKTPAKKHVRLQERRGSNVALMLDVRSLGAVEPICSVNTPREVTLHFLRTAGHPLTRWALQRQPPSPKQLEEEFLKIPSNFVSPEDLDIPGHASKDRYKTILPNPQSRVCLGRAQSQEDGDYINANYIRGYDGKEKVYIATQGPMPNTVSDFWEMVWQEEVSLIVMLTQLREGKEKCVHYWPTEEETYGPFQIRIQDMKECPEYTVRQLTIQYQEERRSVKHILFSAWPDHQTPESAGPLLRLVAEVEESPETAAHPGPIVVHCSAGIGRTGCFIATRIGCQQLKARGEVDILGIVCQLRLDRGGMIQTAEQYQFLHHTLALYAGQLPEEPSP
# [23] = target: T8, Low molecular weight phosphotyrosine protein phosphatase (Homo sapiens, UniProt P24666); type: functional; conditions: read-out: IC50_Mean
# T8 sequence (P24666 whole entry): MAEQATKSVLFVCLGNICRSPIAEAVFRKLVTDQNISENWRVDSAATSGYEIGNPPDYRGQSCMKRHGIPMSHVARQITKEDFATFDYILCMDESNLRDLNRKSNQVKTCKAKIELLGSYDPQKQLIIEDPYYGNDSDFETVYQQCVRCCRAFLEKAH
# [24] = target: T4, Tyrosine-protein phosphatase non-receptor type 22; experiment: PTPN22 phosphatase inhibition, dose response, selectivity assay for STEP inhibitor project, biochemical (AID 624241); type: functional
# [25] = target: T4, Tyrosine-protein phosphatase non-receptor type 22; type: functional; remark: listed apart in the source
# [26] = target: T9, Tyrosine-protein phosphatase non-receptor type 5 (Homo sapiens, UniProt P54829); experiment: STEP phosphatase inhibitors, confirmation, biochemical, fluorescence intensity, uHTS hits (AID 602372); type: functional; conditions: read-out: IC50_Mean
# T9 sequence (P54829 whole entry): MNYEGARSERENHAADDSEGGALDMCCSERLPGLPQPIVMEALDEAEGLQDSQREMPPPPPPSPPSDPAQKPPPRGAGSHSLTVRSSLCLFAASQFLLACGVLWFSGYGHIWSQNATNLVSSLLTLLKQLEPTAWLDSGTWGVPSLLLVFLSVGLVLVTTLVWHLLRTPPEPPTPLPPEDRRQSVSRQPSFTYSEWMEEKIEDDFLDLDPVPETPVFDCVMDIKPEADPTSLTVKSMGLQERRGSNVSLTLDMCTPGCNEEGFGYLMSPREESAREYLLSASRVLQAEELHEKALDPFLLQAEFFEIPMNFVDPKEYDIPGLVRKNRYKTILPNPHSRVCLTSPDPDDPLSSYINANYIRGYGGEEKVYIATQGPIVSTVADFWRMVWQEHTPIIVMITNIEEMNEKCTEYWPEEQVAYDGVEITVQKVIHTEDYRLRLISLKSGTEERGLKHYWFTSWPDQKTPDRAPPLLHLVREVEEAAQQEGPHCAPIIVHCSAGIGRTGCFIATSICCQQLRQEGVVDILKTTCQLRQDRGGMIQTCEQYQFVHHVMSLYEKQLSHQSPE
# [27] = target: Dual specificity protein phosphatase 3 (Homo sapiens, UniProt P51452); experiment: VHR phosphatase inhibition, dose response, selectivity assay for STEP inhibitor project, biochemical (AID 602374); type: functional; conditions: read-out: IC50_Mean
# [28] = target: T8, Low molecular weight phosphotyrosine protein phosphatase; type: functional; conditions: read-out: IC50_Mean; remark: listed apart in the source
# T1 sequence (P41143 whole entry): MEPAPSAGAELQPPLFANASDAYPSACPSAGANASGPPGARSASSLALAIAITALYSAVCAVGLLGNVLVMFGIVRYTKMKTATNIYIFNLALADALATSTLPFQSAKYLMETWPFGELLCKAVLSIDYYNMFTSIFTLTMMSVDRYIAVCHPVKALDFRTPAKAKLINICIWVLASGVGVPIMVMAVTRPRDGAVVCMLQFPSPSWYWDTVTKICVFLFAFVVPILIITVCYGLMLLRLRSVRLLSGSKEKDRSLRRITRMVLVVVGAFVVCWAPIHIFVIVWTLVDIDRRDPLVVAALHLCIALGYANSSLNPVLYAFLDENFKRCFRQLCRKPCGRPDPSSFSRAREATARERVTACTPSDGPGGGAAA
# T3 sequence (P35372 whole entry): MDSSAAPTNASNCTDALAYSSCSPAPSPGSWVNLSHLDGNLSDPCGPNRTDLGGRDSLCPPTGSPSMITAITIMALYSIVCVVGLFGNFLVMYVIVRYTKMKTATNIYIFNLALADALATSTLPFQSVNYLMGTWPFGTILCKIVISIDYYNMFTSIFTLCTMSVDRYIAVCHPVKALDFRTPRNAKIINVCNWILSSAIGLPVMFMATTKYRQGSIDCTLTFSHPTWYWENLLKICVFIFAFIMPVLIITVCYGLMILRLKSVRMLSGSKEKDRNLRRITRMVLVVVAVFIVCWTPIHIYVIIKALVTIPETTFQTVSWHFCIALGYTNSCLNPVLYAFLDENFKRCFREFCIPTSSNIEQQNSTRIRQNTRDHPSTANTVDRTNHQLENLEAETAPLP
# T2 sequence (P41145 whole entry): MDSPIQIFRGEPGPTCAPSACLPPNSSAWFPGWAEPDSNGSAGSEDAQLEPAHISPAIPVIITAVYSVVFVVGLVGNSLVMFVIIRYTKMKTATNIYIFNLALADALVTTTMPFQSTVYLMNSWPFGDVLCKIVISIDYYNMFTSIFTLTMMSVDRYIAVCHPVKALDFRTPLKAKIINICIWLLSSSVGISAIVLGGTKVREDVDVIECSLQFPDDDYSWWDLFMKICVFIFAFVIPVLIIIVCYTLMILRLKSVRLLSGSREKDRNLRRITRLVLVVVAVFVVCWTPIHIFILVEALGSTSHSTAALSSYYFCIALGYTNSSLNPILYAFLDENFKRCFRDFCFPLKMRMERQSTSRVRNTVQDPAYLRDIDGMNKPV
# Chain of G-protein coupled receptor 35 (Q9HC97 whole entry): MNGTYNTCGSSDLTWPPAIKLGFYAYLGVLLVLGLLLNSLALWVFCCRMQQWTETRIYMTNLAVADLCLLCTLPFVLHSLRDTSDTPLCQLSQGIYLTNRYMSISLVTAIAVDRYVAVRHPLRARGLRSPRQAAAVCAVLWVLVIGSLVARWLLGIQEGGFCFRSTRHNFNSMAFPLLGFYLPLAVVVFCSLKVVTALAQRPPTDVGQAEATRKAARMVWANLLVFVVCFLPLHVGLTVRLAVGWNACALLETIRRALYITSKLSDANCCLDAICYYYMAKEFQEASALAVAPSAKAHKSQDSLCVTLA
# Chain of Paired box protein Pax-8 (Q06710 whole entry): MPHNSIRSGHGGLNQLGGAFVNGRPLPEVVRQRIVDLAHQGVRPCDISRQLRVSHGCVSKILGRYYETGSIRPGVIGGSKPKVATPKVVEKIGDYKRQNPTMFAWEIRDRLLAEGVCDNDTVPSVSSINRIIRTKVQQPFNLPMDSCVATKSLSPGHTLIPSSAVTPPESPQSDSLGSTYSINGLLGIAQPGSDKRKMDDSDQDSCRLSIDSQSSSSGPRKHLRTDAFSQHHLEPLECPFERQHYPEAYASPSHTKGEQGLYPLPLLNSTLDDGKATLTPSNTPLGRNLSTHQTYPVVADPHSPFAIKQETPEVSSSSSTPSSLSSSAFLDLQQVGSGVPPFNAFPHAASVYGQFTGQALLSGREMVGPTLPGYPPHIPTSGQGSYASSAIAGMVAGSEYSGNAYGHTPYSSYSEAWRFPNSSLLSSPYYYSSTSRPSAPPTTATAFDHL
# Chain of Dual specificity protein phosphatase 3 (P51452 whole entry): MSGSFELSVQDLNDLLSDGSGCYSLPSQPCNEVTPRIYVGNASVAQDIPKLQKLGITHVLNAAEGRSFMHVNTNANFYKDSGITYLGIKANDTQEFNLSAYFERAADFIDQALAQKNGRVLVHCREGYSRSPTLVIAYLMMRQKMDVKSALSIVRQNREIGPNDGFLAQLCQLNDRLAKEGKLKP
# Chain of Melanocortin receptor 4 (P32245 whole entry): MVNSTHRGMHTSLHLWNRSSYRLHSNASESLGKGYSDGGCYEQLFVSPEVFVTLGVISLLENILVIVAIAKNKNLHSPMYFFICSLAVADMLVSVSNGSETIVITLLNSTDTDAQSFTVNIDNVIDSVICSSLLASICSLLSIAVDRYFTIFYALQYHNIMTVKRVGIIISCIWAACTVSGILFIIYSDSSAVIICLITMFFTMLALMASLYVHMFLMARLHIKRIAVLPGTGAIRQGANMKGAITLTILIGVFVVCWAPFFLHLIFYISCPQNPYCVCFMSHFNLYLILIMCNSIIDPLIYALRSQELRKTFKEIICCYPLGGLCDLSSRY
# Chain of Microphthalmia-associated transcription factor (O75030 whole entry): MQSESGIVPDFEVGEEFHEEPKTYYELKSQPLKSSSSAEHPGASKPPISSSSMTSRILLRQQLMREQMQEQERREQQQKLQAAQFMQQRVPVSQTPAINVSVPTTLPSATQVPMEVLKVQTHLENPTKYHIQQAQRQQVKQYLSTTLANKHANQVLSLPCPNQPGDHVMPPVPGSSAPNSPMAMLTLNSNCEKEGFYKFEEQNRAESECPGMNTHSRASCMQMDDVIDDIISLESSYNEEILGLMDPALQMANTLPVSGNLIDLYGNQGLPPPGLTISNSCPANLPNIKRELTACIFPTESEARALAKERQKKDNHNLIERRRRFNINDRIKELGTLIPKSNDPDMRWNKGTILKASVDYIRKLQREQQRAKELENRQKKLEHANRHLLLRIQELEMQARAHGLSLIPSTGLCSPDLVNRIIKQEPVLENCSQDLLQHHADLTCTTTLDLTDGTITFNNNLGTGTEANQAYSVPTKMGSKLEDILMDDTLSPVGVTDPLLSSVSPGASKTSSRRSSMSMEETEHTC
# Chain of Beta-galactosidase (Q8VNN2 whole entry): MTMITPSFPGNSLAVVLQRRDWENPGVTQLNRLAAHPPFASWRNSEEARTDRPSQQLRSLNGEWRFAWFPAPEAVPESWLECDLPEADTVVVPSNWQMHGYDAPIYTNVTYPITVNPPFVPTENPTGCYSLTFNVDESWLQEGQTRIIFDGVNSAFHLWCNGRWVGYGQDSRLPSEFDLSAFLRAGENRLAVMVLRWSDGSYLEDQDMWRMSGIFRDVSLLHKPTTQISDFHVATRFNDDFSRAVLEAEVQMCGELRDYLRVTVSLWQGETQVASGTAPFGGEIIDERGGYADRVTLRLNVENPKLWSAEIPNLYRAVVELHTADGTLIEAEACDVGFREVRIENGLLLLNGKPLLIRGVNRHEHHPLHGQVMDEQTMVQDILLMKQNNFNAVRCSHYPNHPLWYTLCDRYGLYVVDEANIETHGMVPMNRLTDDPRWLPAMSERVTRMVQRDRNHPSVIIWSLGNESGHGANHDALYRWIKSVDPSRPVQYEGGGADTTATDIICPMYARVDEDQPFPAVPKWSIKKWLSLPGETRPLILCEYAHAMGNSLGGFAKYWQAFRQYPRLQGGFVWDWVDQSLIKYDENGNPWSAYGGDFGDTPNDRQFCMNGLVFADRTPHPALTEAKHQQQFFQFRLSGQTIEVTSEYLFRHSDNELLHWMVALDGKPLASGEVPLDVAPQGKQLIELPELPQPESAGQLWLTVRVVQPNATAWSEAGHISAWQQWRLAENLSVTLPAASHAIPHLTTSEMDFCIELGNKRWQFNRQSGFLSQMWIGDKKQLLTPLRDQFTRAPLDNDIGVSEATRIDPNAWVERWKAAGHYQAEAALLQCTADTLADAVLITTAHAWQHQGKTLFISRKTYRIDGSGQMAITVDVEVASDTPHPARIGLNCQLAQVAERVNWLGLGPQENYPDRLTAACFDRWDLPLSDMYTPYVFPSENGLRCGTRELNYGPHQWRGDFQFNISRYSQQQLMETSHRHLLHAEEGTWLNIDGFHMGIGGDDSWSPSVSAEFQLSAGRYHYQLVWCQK
# Chain of G-protein coupled receptor 55 (Q9Y2T6 whole entry): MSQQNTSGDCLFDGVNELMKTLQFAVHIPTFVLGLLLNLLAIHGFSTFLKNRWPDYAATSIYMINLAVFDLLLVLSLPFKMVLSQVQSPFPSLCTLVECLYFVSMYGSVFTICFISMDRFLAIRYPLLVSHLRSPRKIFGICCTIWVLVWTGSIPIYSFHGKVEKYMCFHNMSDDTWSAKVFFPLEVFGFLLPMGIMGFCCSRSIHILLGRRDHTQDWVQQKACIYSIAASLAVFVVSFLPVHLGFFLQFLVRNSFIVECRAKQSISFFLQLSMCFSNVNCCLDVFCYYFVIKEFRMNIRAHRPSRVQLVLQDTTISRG
structure (smiles),measurement,setting,value
COc1cc(OC)cc(-c2nnc(NC(=O)c3ccc4c(c3)OCCO4)o2)c1,EC50,Beta-galactosidase,> 31.5 µM (inactive)
same,IC50,[1],> 32 µM (inactive)
same,EC50,[2],> 32 µM (inactive)
same,IC50,[3],> 32 µM
same,EC50,Mu-type opioid receptor [4],> 32 µM (inactive)
same,IC50,[5],13.3 µM (active)
CC(C)N=C(NS(=O)(=O)c1ccccc1)C(Cl)(Cl)Cl,AC50,[6],6.76 µM (active)
same,CC50,Vero,11.5 µM (active)
COc1ccc(C(=O)CSc2nnc(-c3ccccn3)n2Cc2ccco2)cc1,EC50,[7],> 32 µM (inactive)
same,EC50,Mu-type opioid receptor [8],> 32 µM (inactive)
same,IC50,[9],> 32 µM (inactive)
same,IC50,Mu-type opioid receptor [10],> 32 µM (inactive)
same,IC50,[11],> 32 µM (inactive)
same,EC50,[12],> 10 µM (inactive)
same,EC50,[13],> 32 µM (inactive)
Clc1ccc(Cn2ncc3c(N4CCN(c5ccccc5)CC4)ncnc32)cc1,AC50,[14],33.9 µM (active)
same,EC50,Melanocortin receptor 4,> 89.1 µM (inactive)
same,AC50,Paired box protein Pax-8,8.65 µM (active)
same,IC50,[15],29.3 µM (inactive)
same,IC50,[16],> 32 µM (not active)
COc1ccc(Cn2c(SCc3ccc(Cl)c(Cl)c3)nnc2-c2ccccn2)cc1,EC50,[17],17.4 µM (inactive)
O=C(COc1ccc(/C=N/NC(=O)c2ccc(O)cc2)cc1)Nc1cccc([N+](=O)[O-])c1,IC50,[18],64.7 µM (active)
same,IC50,[19],2.98 µM (active)
same,IC50,[20],2.41 µM (active)
same,IC50,[21],11.6 µM (active)
same,IC50,[22],49.1 µM (active)
same,IC50,[23],11.2 µM (active)
same,IC50,[24],48.9 µM (inactive)
same,IC50,[25],37.6 µM (active)
same,IC50,[26],8.06 µM (active)
same,IC50,[27],3.06 µM (active)
same,IC50,[28],15.8 µM (active)
